Ten compounds from ChEMBL document CHEMBL4387721, “Proteolysis targeting chimeras (PROTACs) in 'beyond rule-of-five' chemical space: Recent progress and future challenges” (Bioorg Med Chem Lett, 2019) can be followed below.

Structures are written as SMILES. A value given as a limit tells only on which side of the number the result lay.

The target in assay [1] is T1, BRD4/E3 ubiquitin-protein ligase Mdm2 (Homo sapiens, UniProt Q00987+O60885). Kind of assay: Protac activity at BRD4/MDM2 in human HCT116 cells assessed as induction of BRD4 degradation at 100 nM after 24 hrs by immunoblotting analysis relative to control. The assay is classed as cell-based.
In assay [2] the target is T1, BRD4/E3 ubiquitin-protein ligase Mdm2. Kind of assay: Protac activity at BRD4/MDM2 in human HCT116 cells assessed as induction of BRD4 degradation at after 24 hrs by immunoblotting analysis. The format is cell-based.
Assay [3] addresses T2, Protein cereblon/Cyclin-dependent kinase 9 (Homo sapiens, UniProt P50750+Q96SW2). The assay is described as follows: Protac activity at CRBN/CDK9 in human MOLT4 cells assessed as induction of CDK9 protein degradation after 6 hrs by Western blot analysis relative to control. The assay is classed as cell-based.
The target in assay [4] is T2, Protein cereblon/Cyclin-dependent kinase 9. The assay is described as follows: Protac activity at CRBN/CDK9 in human MOLT4 cells assessed as induction of CDK9 protein degradation after 6 hrs by Western blot analysis. The assay is classed as cell-based.
For assay [5], the target named is T3, von Hippel-Lindau disease tumor suppressor/Receptor-type tyrosine-protein kinase FLT3 (Homo sapiens, UniProt P36888+P40337). The assay is described as follows: Protac activity at VHL/FLT3 in human MOLM14 cells assessed as induction of FLT3 protein degradation measured after 4 hrs by immunoblot analysis. The format is cell-based.
Target sequence in this assay (P36888 whole entry): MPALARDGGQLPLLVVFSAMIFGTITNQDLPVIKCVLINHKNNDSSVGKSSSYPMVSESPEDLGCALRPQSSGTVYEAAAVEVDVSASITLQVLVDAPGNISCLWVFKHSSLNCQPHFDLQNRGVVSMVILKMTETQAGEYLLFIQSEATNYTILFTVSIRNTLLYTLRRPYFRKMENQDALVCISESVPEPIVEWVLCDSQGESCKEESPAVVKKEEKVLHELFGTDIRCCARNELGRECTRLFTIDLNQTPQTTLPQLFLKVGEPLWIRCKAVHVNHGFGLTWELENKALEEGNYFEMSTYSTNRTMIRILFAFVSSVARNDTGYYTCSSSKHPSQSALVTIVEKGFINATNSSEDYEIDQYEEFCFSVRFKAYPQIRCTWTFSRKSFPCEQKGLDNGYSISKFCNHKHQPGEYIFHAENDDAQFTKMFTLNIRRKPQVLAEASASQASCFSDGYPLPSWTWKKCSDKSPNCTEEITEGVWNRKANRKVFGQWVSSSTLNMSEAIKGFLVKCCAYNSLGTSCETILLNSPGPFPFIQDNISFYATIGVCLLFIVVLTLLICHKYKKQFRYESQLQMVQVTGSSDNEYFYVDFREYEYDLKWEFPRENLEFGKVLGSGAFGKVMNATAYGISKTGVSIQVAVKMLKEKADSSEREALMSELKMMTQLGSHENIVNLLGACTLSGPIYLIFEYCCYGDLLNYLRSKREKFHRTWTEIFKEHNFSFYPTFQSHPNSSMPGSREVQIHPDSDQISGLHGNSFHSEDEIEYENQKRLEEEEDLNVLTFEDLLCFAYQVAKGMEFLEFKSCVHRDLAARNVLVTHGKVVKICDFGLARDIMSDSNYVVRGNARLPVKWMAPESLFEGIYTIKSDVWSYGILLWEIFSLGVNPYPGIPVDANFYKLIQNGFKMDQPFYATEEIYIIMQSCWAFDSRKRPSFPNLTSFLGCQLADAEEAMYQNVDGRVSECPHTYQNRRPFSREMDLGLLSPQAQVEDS
Target sequence in this assay (P40337 whole entry): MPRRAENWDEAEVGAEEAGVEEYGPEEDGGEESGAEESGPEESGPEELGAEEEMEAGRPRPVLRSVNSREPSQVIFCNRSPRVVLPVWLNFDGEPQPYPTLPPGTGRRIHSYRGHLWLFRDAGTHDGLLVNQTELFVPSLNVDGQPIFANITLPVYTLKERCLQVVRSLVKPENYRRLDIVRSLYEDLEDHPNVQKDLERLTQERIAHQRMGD
Assay [6] deals with T3, von Hippel-Lindau disease tumor suppressor/Receptor-type tyrosine-protein kinase FLT3. Kind of assay: Protac activity at VHL/FLT3 in human MOLM14 cells assessed as induction of FLT3 protein degradation at 50 nM measured after 4 hrs by immunoblot analysis relative to control. The format is cell-based.
In assay [7] the target is von Hippel-Lindau disease tumor suppressor/Receptor-interacting serine/threonine-protein kinase 2 (Homo sapiens) (UniProt O43353+P40337). Kind of assay: Protac activity at VHL/RIPK2 in human THP1 cells assessed as induction of RIPK2 protein degradation at 10 nM incubated for 16 hrs by Western blot analysis relative to control. The assay is classed as cell-based.
Assay [8] addresses T4, von Hippel-Lindau disease tumor suppressor/Focal adhesion kinase 1 (Homo sapiens, UniProt Q05397+P40337). The assay is described as follows: Protac activity at VHL/FAK in serum deprived human PC3 cells assessed as induction of FAK protein degradation in serum deprived human PC3 cells at 50 nM after 24 hrs by Western blot analysis relative to control.
The target in assay [9] is T4, von Hippel-Lindau disease tumor suppressor/Focal adhesion kinase 1. Kind of assay: Protac activity at VHL/FAK in serum deprived human PC3 cells assessed as induction of FAK protein degradation in serum deprived human PC3 cells after 24 hrs by Western blot analysis.
Assay [10] addresses Protein cereblon/Tyrosine-protein kinase BTK (Homo sapiens, UniProt Q06187+Q96SW2). Kind of assay: Protac activity at CRBN/BTK in human NAMALWA cells assessed as induction of BTK protein degradation at 100 nM incubated for 24 hrs by immunoblotting method relative to control. The format is cell-based.
The target in assay [11] is T5, von Hippel-Lindau disease tumor suppressor/Steroid hormone receptor ERR1 (Homo sapiens, UniProt P11474+P40337). Kind of assay: Protac activity at VHL/ERRalpha in epoxomicin pre-treated human MCF7 cells assessed as induction of ERRalpha protein degradation at 1 uM incubated for 8 hrs by Western blot analysis relative to control. The format is cell-based.
Target sequence in this assay (P11474 whole entry, looked up): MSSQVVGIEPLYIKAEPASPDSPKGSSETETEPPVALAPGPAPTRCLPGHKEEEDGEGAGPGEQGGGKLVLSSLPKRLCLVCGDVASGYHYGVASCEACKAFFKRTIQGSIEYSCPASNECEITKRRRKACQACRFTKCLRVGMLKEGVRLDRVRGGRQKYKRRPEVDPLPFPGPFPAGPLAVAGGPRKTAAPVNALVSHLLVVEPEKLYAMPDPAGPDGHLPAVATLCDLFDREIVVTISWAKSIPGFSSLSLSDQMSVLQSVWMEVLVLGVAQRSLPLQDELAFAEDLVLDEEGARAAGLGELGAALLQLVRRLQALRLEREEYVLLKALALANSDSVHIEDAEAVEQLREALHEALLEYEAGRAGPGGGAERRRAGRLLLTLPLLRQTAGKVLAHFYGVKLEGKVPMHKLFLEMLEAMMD
Target sequence in this assay (P40337 whole entry, looked up): as the sequence (P40337 whole entry) above
Assay [12] has as its target T5, von Hippel-Lindau disease tumor suppressor/Steroid hormone receptor ERR1. The assay is described as follows: Protac activity at VHL/ERRalpha in epoxomicin pre-treated human MCF7 cells assessed as induction of ERRalpha protein degradation incubated for 8 hrs by Western blot analysis. The assay is classed as cell-based.
Target sequence in this assay (P11474 whole entry): as the sequence (P11474 whole entry, looked up) above
Target sequence in this assay (P40337 whole entry): as the sequence (P40337 whole entry) above
Assay [13] concerns Protein cereblon/Tyrosine-protein kinase BTK (Homo sapiens), Q06187+Q96SW2 [C481S]. Kind of assay: Protac activity at CRBN/BTK C481S mutant in human MCL cells assessed as induction of BTK C481S mutant degradation at 500 nM relative to control. The assay is classed as cell-based.
Assay [14] has the same test system. The assay is described as follows: Protac activity at CRBN/BTK C481S mutant in human MM cells assessed as induction of BTK C481S mutant protein degradation at 500 nM relative to control. The format is cell-based.
Assay [15] deals with T6, Protein cereblon/Tyrosine-protein kinase BTK (Homo sapiens, UniProt Q06187+Q96SW2, C481S). Kind of assay: Protac activity at CRBN/BTK C481S mutant in human MCL cells assessed as induction of BTK C481S mutant degradation. The assay is classed as cell-based.
For assay [16], the target named is T6, Protein cereblon/Tyrosine-protein kinase BTK. Kind of assay: Protac activity at CRBN/BTK C481S mutant in human MM cells assessed as induction of BTK C481S mutant protein degradation. The format is cell-based.
For assay [17], the target named is T7, Protein cereblon/B-cell lymphoma 6 protein (Homo sapiens, UniProt Q96SW2+P41182). The assay is described as follows: Protac activity at CRBN/BCL6 in human SUDHL4 cells assessed as induction of BCL6 protein degradation at 1 uM after 4 hrs by Western blot analysis relative to control. The assay is classed as cell-based.
Assay [18] addresses T7, Protein cereblon/B-cell lymphoma 6 protein. Kind of assay: Protac activity at CRBN/BCL6 in human SUDHL4 cells assessed as induction of BCL6 protein degradation after 4 hrs by Western blot analysis. The format is cell-based.
Assay [19] deals with T8, Estrogen receptor/E3 ubiquitin-protein ligase XIAP (Homo sapiens, UniProt P03372+P98170). The assay is described as follows: Protac activity at ERalpha/XIAP in human MCF7 cells assessed as induction of ERalpha degradation after 4 hrs by Western blot analysis. The format is cell-based.
Target sequence in this assay (P03372 whole entry): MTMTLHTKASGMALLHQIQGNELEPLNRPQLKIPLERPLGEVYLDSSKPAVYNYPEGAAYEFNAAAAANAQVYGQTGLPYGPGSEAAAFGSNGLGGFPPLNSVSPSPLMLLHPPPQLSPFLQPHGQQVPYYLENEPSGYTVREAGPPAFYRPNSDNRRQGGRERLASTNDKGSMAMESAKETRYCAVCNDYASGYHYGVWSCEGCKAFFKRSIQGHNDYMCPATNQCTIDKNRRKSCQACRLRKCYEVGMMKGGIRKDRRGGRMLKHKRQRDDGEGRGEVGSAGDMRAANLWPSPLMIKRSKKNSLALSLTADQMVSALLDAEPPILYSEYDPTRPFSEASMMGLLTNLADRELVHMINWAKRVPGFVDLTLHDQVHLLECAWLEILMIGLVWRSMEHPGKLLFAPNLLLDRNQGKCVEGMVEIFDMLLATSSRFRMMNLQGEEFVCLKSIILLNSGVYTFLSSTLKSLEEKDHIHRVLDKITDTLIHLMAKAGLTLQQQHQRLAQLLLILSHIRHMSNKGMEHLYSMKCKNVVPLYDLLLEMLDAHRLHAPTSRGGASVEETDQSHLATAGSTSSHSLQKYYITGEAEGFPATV
Target sequence in this assay (P98170 whole entry): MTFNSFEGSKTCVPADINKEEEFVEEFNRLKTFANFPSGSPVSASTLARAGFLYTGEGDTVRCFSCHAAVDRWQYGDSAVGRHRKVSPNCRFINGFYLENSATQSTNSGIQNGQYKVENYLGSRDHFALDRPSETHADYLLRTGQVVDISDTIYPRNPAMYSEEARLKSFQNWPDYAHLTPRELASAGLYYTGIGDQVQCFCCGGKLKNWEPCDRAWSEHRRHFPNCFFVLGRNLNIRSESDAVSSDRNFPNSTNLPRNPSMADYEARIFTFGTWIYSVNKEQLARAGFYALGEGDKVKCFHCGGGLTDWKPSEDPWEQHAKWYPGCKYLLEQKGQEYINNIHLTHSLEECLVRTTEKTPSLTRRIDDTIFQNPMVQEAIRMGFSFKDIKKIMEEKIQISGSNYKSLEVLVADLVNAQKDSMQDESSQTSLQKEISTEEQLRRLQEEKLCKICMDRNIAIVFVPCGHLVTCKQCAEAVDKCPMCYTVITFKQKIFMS
Assay [20] concerns the target T8, Estrogen receptor/E3 ubiquitin-protein ligase XIAP. Kind of assay: Protac activity at ERalpha/XIAP in human MCF7 cells assessed as induction of ERalpha degradation at 100 nM by Western blot analysis relative to control. The format is cell-based.
Target sequence in this assay (P03372 whole entry, looked up): as the sequence (P03372 whole entry) above
Target sequence in this assay (P98170 whole entry, looked up): as the sequence (P98170 whole entry) above

T1 sequence (Q00987 whole entry, looked up, other chains not shown): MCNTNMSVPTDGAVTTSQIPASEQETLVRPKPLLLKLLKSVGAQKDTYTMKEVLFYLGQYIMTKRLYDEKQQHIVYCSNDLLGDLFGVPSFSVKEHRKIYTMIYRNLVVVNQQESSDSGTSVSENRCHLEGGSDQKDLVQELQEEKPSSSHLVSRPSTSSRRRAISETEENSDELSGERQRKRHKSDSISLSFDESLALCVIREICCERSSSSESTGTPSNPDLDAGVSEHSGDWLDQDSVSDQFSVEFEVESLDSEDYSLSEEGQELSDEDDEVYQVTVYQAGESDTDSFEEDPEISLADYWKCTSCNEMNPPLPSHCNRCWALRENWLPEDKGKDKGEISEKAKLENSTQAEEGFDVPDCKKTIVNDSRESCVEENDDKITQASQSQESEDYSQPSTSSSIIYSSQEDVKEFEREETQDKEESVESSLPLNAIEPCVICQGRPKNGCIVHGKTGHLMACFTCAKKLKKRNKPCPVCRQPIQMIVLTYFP
T6 sequence (Q06187 2-659 C481S limits assumed, stated change not applied): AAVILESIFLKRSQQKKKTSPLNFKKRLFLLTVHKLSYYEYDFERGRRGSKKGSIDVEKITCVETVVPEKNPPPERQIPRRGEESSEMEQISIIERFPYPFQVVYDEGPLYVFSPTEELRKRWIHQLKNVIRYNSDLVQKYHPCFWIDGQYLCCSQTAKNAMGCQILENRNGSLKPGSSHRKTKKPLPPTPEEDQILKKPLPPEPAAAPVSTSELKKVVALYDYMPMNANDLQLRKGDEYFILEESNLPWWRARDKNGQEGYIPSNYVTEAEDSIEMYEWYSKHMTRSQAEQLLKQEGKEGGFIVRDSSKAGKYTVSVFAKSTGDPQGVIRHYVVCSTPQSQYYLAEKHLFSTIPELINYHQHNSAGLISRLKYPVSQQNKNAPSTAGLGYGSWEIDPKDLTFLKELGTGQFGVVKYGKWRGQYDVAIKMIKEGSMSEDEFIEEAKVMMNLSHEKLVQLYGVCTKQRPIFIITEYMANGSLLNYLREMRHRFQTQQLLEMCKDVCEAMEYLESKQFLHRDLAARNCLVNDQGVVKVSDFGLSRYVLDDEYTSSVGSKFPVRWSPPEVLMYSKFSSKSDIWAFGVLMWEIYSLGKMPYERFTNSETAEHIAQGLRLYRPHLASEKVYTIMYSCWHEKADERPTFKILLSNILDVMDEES
T6 sequence (Q96SW2 whole entry, stated change not applied): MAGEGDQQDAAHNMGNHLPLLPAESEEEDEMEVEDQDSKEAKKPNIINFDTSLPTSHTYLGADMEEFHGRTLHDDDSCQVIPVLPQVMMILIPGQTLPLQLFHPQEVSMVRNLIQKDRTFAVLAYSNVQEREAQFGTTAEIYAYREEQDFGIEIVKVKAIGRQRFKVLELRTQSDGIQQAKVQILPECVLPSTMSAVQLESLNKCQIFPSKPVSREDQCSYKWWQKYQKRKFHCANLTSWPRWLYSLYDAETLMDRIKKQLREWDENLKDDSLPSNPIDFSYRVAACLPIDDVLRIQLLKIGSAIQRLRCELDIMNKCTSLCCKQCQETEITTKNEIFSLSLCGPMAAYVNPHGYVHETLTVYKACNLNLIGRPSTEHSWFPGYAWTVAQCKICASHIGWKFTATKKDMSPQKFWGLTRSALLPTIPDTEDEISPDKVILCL
T7 sequence (Q96SW2 whole entry, looked up, other chains not shown): as the sequence (Q96SW2 whole entry, stated change not applied) above
Sequence of Protein cereblon/Tyrosine-protein kinase BTK (Homo sapiens, UniProt Q06187+Q96SW2) (Q06187 2-659 limits assumed): as the sequence (Q06187 2-659 C481S limits assumed, stated change not applied) above, with S480C counted along it
Sequence of Protein cereblon/Tyrosine-protein kinase BTK (Homo sapiens, UniProt Q06187+Q96SW2) (Q96SW2 whole entry partner): as the sequence (Q96SW2 whole entry, stated change not applied) above

For the compound `COc1cc(C(=O)NCCOCCOCCOCCNC(=O)C[C@@H]2N=C(c3ccc(Cl)cc3)c3c(sc(C)c3C)-n3c(C)nnc32)ccc1NC(=O)[C@@H]1N[C@@H](CC(C)(C)C)[C@](C#N)(c2ccc(Cl)cc2F)[C@H]1c1cccc(Cl)c1F`, the Emax in assay [1] came to 98%. Further, in assay [2], the DC50 is 32 nM.
Turning to `CC(C)(C)c1cnc(CSc2cnc(NC(=O)C3CCN(CC(=O)NCCOCCOCCOCCNc4cccc5c4C(=O)N(C4CCC(=O)NC4=O)C5=O)CC3)s2)o1` (stereo not given), the maximal response (Emax) in assay [3] was more than 95%. Moreover, the DC50 in assay [4] is less than 250 nM.
With `Cc1ncsc1-c1ccc(CNC(=O)[C@@H]2C[C@@H](O)CN2C(=O)[C@@H](NC(=O)CCOCCOCCOc2ccc3c(c2)sc2nc(-c4ccc(NC(=O)Nc5cc(C(C)(C)C)on5)cc4)cn23)C(C)(C)C)cc1`, the DC50 in assay [5] was less than 5 nM. Besides, in assay [6], the Emax was more than 90%.
For `Cc1ncsc1-c1ccc(CNC(=O)[C@@H]2C[C@@H](O)CN2C(=O)[C@@H](NC(=O)COCCOCCOCCOCCOc2cc3nccc(Nc4ccc5scnc5c4)c3cc2S(=O)(=O)C(C)(C)C)C(C)(C)C)cc1`, the Emax in assay [7] is more than 95%.
Consider `Cc1ncsc1-c1ccc(CNC(=O)[C@@H]2C[C@@H](O)CN2C(=O)[C@@H](NC(=O)CCOCCOc2ccc(Nc3ncc(C(F)(F)F)c(NCc4cccc(N(C)S(C)(=O)=O)c4)n3)cc2)C(C)(C)C)cc1`, for which, in assay [8], the Emax was more than 99%. Also, the DC50 in [9] was 3 nM.
Consider `Nc1ncnc2c1c(-c1ccc(Oc3ccccc3)cc1)nn2C1CCN(CCOCCOCC(=O)Nc2ccc3c(c2)C(=O)N(C2CCC(=O)NC2=O)C3=O)CC1` (stereo not given), for which the Emax in [10] is more than 99%.
With `COc1cc(/C=C2\SC(=O)N(CCOCCC(=O)N[C@H](C(=O)N3C[C@H](O)C[C@H]3C(=O)NCc3ccc(-c4scnc4C)cc3)C(C)(C)C)C2=O)ccc1Oc1ccc(C#N)cc1C(F)(F)F`, the maximal response (Emax) in [11] came out at 86%. For the same compound, the DC50 in [12] was determined as 100 nM.
Turning to `Nc1ncnc2c1c(-c1ccc(Oc3ccccc3)cc1)nn2[C@@H]1CCCN(C(=O)c2cn(CCOCCOCCOCCNc3cccc4c3C(=O)N(C3CCC(=O)NC3=O)C4=O)nn2)C1` (stereo not given in full), the Emax in assay [13] and in assay [14] was more than 94% throughout. Besides, the DC50 in assay [15] was more than 6 nM; in assay [16] it was less than 12 nM.
In the case of `CN1C(=O)CCc2cc3cc(c21)OCCOC[C@H]1CN(C(=O)CCC(=O)NCCCOCCOCCOCCOCCOc2cccc4c2C(=O)N(C2CCC(=O)NC2=O)C4=O)CCN1c1ncc(Cl)c(n1)N3` (stereo not given in full), the Emax in assay [17] was determined as 84%. Moreover, the DC50 in assay [18] was less than 1000 nM.
Turning to `CC/C(=C(\c1ccc(O)cc1)c1ccc(OCCN(C)C(=O)COCCOCCOCCOc2cccc(O[C@H]3C[C@@H](C(=O)N[C@@H]4CCCc5ccccc54)N(C(=O)[C@@H](NC(=O)[C@H](C)NC)C4CCCCC4)C3)c2)cc1)c1ccccc1`, in [19], the DC50 is less than 3 nM. Also, the Emax in assay [20] is 80%.
